Laboratory results reported in patent publication USRE39591E1, “6-O-substituted ketolides having antibacterial activity” (Abbott Laboratories, priority 1996, dated 2007).
In brackets after ≈: the same amount, converted by molar mass.

Test system: up to 32 different microorganisms
Test: in vitro antibacterial activity (MIC), agar dilution on Brain Heart Infusion (BHI) agar with Steers replicator
Type: cell-based
Conditions: unit assumed
Procedure, shortened: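 Agar dilution MIC: twelve successive compound dilutions in BHI agar, spot-inoculated with 1:100 (1:10 for slow growers) organism dilutions by Steers replicator, incubated 35-37° C for 20-24 h. MIC is lowest concentration showing no growth, slight haze or sparse colonies versus drug-free control; erythromycin A as class reference.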

Row | SMILES | MIC (organism code AA) [µg/mL] | MIC (organism code BB) [µg/mL] | MIC (organism code CC) [µg/mL] | MIC (organism code DD) [µg/mL] | MIC (organism code FF) [µg/mL] | MIC (organism code GG) [µg/mL] | MIC (organism code HH) [µg/mL] | MIC (organism code II) [µg/mL] | MIC (organism code JJ) [µg/mL] | MIC (organism code KK) [µg/mL] | MIC (organism code LL) [µg/mL] | MIC (organism code MM) [µg/mL] | MIC (organism code NN) [µg/mL] | MIC (organism code OO) [µg/mL] | MIC (organism code PP) [µg/mL] | MIC (organism code QQ) [µg/mL] | MIC (organism code RR) [µg/mL] | MIC (organism code SS) [µg/mL] | MIC (organism code TT) [µg/mL] | MIC (organism code UU) [µg/mL] | other results
1 | CC[C@H]1OC(=O)[C@H](C)C(=O)[C@H](C)[C@@H](O[C@@H]2O[C@H](C)C[C@H](N(C)C)[C@H]2O)[C@@](C)(OCC=Cc2cnc3ccc(C(=O)O)cc3c2)C[C@@H](C)C(=O)[C@H](C)[C@H]2NC(=O)O[C@@]21C [Example 214] | 6.2 (≈ 7.65 µM) | 251 (≈ 310 µM) | > 100 | 12.5 (≈ 15.4 µM) | 12.5 (≈ 15.4 µM) | > 100 | 25 (≈ 30.9 µM) | 25 (≈ 30.9 µM) | 6.2 (≈ 7.65 µM) | 3.1 (≈ 3.83 µM) | 1.56 (≈ 1.93 µM) | 12.5 (≈ 15.4 µM) | 25 (≈ 30.9 µM) | 12.5 (≈ 15.4 µM) | 12.5 (≈ 15.4 µM) | > 100 | 3.1 (≈ 3.83 µM) | > 100 | > 100 | 100 (≈ 123 µM) | MIC (organism code EE): 12.5 µg/mL (≈ 15.4 µM); MIC (organism code VV): 50 µg/mL (≈ 61.7 µM); MIC (organism code WW): 64 µg/mL (≈ 79 µM); MIC (organism code XX): 1 µg/mL (≈ 1.23 µM); MIC (organism code YY): 1 µg/mL (≈ 1.23 µM); MIC (organism code ZZ): > 128 µg/mL; MIC (organism code ZZA): 32 µg/mL (≈ 39.5 µM)
2 | CCC1OC(=O)C(C)C(=O)C(C)C(OC2OC(C)CC(N(C)C)C2O)C(C)(OCC=Cc2cnc3ccc(F)cc3c2)CC(C)C(=O)C(C)C2NC(=O)OC12C (stereo not shown) [Example 215, R is —CH2CH═CH-(6-fluoro-3-quinolyl)] | 0.05 (≈ 0.0638 µM) | 0.1 (≈ 0.128 µM) | > 100 | 0.1 (≈ 0.128 µM) | 0.1 (≈ 0.128 µM) | > 100 | 0.1 (≈ 0.128 µM) | 0.05 (≈ 0.0638 µM) | 0.01 (≈ 0.0128 µM) | 0.01 (≈ 0.0128 µM) | 0.01 (≈ 0.0128 µM) | 0.78 (≈ 0.995 µM) | 0.1 (≈ 0.128 µM) | 0.01 (≈ 0.0128 µM) | 0.2 (≈ 0.255 µM) | 25 (≈ 31.9 µM) | 0.2 (≈ 0.255 µM) | > 100 | > 100 | 0.78 (≈ 0.995 µM) | MIC (organism code EE): 0.1 µg/mL (≈ 0.128 µM); MIC (organism code VV): 0.02 µg/mL (≈ 0.0255 µM); MIC (organism code WW): 2 µg/mL (≈ 2.55 µM); MIC (organism code XX): 0.015 µg/mL (≈ 0.0191 µM); MIC (organism code YY): ≤ 0.004 µg/mL; MIC (organism code ZZ): 16 µg/mL (≈ 20.4 µM); MIC (organism code ZZA): 0.25 µg/mL (≈ 0.319 µM)
3 | CCC1OC(=O)C(C)C(=O)C(C)C(OC2OC(C)CC(N(C)C)C2O)C(C)(OCC=Cc2cnc3ccc(C(=O)OC)cc3c2)CC(C)C(=O)C(C)C2NC(=O)OC12C (stereo not shown) [Example 216, R is —CH2CH═CH-(6-methoxycarbonyl-3-quinolyl)] | 0.2 (≈ 0.243 µM) | 0.2 (≈ 0.243 µM) | > 100 | 0.2 (≈ 0.243 µM) | 0.2 (≈ 0.243 µM) | > 100 | 0.2 (≈ 0.243 µM) | 0.05 (≈ 0.0607 µM) | 0.01 (≈ 0.0121 µM) | 0.02 (≈ 0.0243 µM) | 0.02 (≈ 0.0243 µM) | 0.78 (≈ 0.947 µM) | 0.2 (≈ 0.243 µM) | 0.05 (≈ 0.0607 µM) | 0.1 (≈ 0.121 µM) | 100 (≈ 121 µM) | 0.39 (≈ 0.473 µM) | > 100 | > 100 | 0.78 (≈ 0.947 µM) | MIC (organism code EE): 0.2 µg/mL (≈ 0.243 µM); MIC (organism code VV): 0.1 µg/mL (≈ 0.121 µM); MIC (organism code WW): 2 µg/mL (≈ 2.43 µM); MIC (organism code XX): 0.015 µg/mL (≈ 0.0182 µM); MIC (organism code YY): 0.015 µg/mL (≈ 0.0182 µM); MIC (organism code ZZ): 0.5 µg/mL (≈ 0.607 µM); MIC (organism code ZZA): 0.25 µg/mL (≈ 0.303 µM)
4 | CCC1OC(=O)C(C)C(=O)C(C)C(OC2OC(C)CC(N(C)C)C2O)C(C)(OCC=Cc2cnc3ccc(C(N)=O)cc3c2)CC(C)C(=O)C(C)C2NC(=O)OC12C (stereo not shown) [Example 217, R is —CH2CH═CH-(6-aminocarbonyl-3-quinolyl)] | 0.2 (≈ 0.247 µM) | 0.39 (≈ 0.482 µM) | > 100 | 0.39 (≈ 0.482 µM) | 0.2 (≈ 0.247 µM) | > 100 | 0.39 (≈ 0.482 µM) | 0.2 (≈ 0.247 µM) | 0.02 (≈ 0.0247 µM) | 0.02 (≈ 0.0247 µM) | 0.02 (≈ 0.0247 µM) | 0.78 (≈ 0.964 µM) | 0.78 (≈ 0.964 µM) | 0.1 (≈ 0.124 µM) | 0.39 (≈ 0.482 µM) | 50 (≈ 61.8 µM) | 0.39 (≈ 0.482 µM) | > 100 | > 100 | 12.5 (≈ 15.5 µM) | MIC (organism code VV): 0.78 µg/mL (≈ 0.964 µM); MIC (organism code WW): 2 µg/mL (≈ 2.47 µM); MIC (organism code XX): 0.03 µg/mL (≈ 0.0371 µM); MIC (organism code YY): 0.03 µg/mL (≈ 0.0371 µM); MIC (organism code ZZ): 2 µg/mL (≈ 2.47 µM); MIC (organism code ZZA): 2 µg/mL (≈ 2.47 µM)
5 | CCC1OC(=O)C(C)C(=O)C(C)C(OC2OC(C)CC(N(C)C)C2O)C(C)(OCC=Cc2cnc3ccc(C#N)cc3c2)CC(C)C(=O)C(C)C2NC(=O)OC12C (stereo not shown) [Example 218, R is —CH2CH═CH-(6-cyano-3-quinolyl)] | 0.1 (≈ 0.126 µM) | 0.1 (≈ 0.126 µM) | > 100 | 0.1 (≈ 0.126 µM) | 0.1 (≈ 0.126 µM) | > 100 | 0.01 (≈ 0.0126 µM) | 0.05 (≈ 0.0632 µM) | 0.01 (≈ 0.0126 µM) | 0.01 (≈ 0.0126 µM) | 0.01 (≈ 0.0126 µM) | 6.2 (≈ 7.84 µM) | 0.2 (≈ 0.253 µM) | 0.05 (≈ 0.0632 µM) | 0.05 (≈ 0.0632 µM) | 50 (≈ 63.2 µM) | 0.39 (≈ 0.493 µM) | > 100 | > 100 | 0.78 (≈ 0.986 µM) | MIC (organism code EE): 0.1 µg/mL (≈ 0.126 µM); MIC (organism code VV): 0.05 µg/mL (≈ 0.0632 µM); MIC (organism code XX): 0.015 µg/mL (≈ 0.019 µM); MIC (organism code YY): 0.015 µg/mL (≈ 0.019 µM); MIC (organism code ZZ): 4 µg/mL (≈ 5.06 µM); MIC (organism code ZZA): 0.25 µg/mL (≈ 0.316 µM)
